Experimental data from US20180163221A1, “TRANSGENIC PLANTS EXPRESSING TYPE 2C PROTEIN PHOSPHATASE ABSCISIC ACID (PP2CABA) PROTEINS AND USES THEREOF” (Academia Sinica, priority 2016, published 2018).

Tests used:
[1] = system: PP2CABA expression in roots; experiment: Quantitative RT-PCR of PP2CABA expression in roots of ABA-treated rice seedlings; format: in vivo, Oryza sativa; conditions: various concentrations of ABA, 24 hours
Protocol: FIG. 3A to FIG. 3D include diagrams showing plants have higher PP2CABA expression under induction by ABA and abiotic stress and are expressed in meristematic tissues. […] Ten-day-old rice seedlings were treated with 5 μM ABA, 200 mM NaCl, dehydration on tissue papers, or 4° C. for 3 hours. Total RNAs were purified from shoots and roots, and subjected to quantitative RT-PCR analysis using gene specific primers. […] Ten-day-old WT rice seedlings were treated with various concentrations of ABA for 24 hours. Total RNAs were purified from roots, and subjected to quantitative RT-PCR analysis using PP2CABA-specific primers. […] Recombinant GST-PP2CABA, GST-PP2CABA (D100A), GST-ABI2, and GST proteins were expressed in E. coli, purified and reacted with a phosphor peptide substrate, RRApTVA, and phosphatase activities were determined by measuring released free phosphate. […]
Total RNA was purified from rice tissues using Trizol reagent (Invitrogen) and treated with RNase-free DNase I (Promega). […] For quantitative RT-PCR analyses, 5-μl of cDNA was mixed with primers and the 2× Power SYBR Green PCR Master Mix reagent (Roche) and applied to an ABI 7500 Real-Time PCR system (Applied Biosystems). The quantitative variation between different samples was evaluated by the Δ-Δ cycle threshold method, and the amplification of ubiquitin 5 was used as an internal control to normalize all data.

PP2CABA promoter = experiment: GUS staining of transgenic rice carrying PP2CABA:GUS treated with ABA; format: in vivo, Oryza sativa; conditions: 10 μM ABA for 1 day; basal meristem region in root tips, LR primordia and young leaves
Protocol: (§1) FIG. 3A to FIG. 3D include diagrams showing plants have higher PP2CABA expression under induction by ABA and abiotic stress and are expressed in meristematic tissues. […] Ten-day-old rice seedlings were treated with 5 μM ABA, 200 mM NaCl, dehydration on tissue papers, or 4° C. for 3 hours. Total RNAs were purified from shoots and roots, and subjected to quantitative RT-PCR analysis using gene specific primers. […] Ten-day-old WT rice seedlings were treated with various concentrations of ABA for 24 hours. Total RNAs were purified from roots, and subjected to quantitative RT-PCR analysis using PP2CABA-specific primers. […] Recombinant GST-PP2CABA, GST-PP2CABA (D100A), GST-ABI2, and GST proteins were expressed in E. coli, purified and reacted with a phosphor peptide substrate, RRApTVA, and phosphatase activities were determined by measuring released free phosphate. […] Ten-day-old seedlings of transgenic rice carrying PP2CABA:GUS were treated with (lower panel) or without (upper panel) 10 μM ABA for 1 day and then stained for GUS activity. Arrow indicates young leaves.
Tissues were placed in GUS assay buffer containing (0.1 M NaPO4 buffer pH 7.0, 10 mM EDTA, 0.1% Triton X-100, 0.5 mM potassium ferricyanide pH 7.0, and 1.0 mM X-glucuronide) and incubated overnight at 37° C. Vacuum aspiration was applied during initial 30 minutes. […]

rice seedlings [2] = experiment: Lateral root growth and root diameter of rice seedlings treated with ABA; format: in vivo, Oryza sativa; conditions: 1 μM ABA
Protocol: FIG. 5A to FIG. 5B include photos showing plants have lower LR to PR ratio under induction of ABA and expression of PP2CABA. […] Ten-day-old seedlings of segregated wild type (WT) or pp2caba homozygous mutant were treated with (+) or without (−) 1 μM ABA for 3 days. Upper panel: morphology of roots. Lower panel: elongation of LR in boxed area (1 cm above the root tip) of roots in upper panel. LRP (marked by arrowheads) were initiated but not elongated in WT in the presence of ABA. […] Upper panel: morphology of roots. Lower panel: elongation of LR in boxed area (2 cm above the root tip) of roots in upper panel. LRP (marked by arrowheads) were initiated but not elongated in PP2CABA-overexpressing transgenic rice. S: seminal roots. C: crown roots.
The japonica rice (Oryza sativa cv Tainung 67) was used in this study. Plasmids were introduced into Agrobacterium tumefaciens strain EHA105, and rice transformation was performed as described (Chen et al., J Biol Chem, 277:13641 (2002)). The PP2CABA mutant seeds were obtained from the Taiwan Rice Insertional Mutant (TRIM) library (Hsing et al., Plant Molecular Biology, 63:351 (2007)). For hydroponic culture of rice seedlings, seeds were sterilized with 3% NaOCl for 30 minutes, washed extensively with distilled water, and germinated in petri dishes with wetted filter papers at 37° C. in the dark. After 48 h of incubation, germinated seeds were cultivated in Yoshida solution (Yoshida et al., International Rice Research Institute, 3 (1976)). The culture solution was replaced with fresh solution every 2 days. For observation of root growth in glass tube with phytagel, sterilized rice seeds were germinated on the surface of plate with Yoshida solution with 0.3% phytagel without sugar in the dark at 28° C. for about 48 hours. The germinated seedlings were then transplanted to glass tubes, which were 22 cm in height and 4.5 cm in diameter, and each filled with 150 ml Yoshida solution with 0.3% phytagel without sugar. 6 cm plastic dish was used to cover the glass tube and sealed by micropore tape to allow light penetration and gas exchange and prevent the medium from becoming contaminated by external microbes. Seedlings were grown under a 14-h-light/10-h-dark cycle in a 28° C. chamber.

[3] = system: genes essential for lignin and suberin biosynthesis; experiment: Quantitative RT-PCR of lignin and suberin biosynthesis genes in roots of ABA-treated WT rice; format: in vivo, Oryza sativa; conditions: ABA 24 hours, except PAL and CAD
Text: FIG. 9A to FIG. 9B include diagrams showing that ABA and PP2CABA up-regulating the expression of genes essential for lignin and suberin biosynthesis. […] Total RNA was purified from roots and subjected to quantitative RT-PCR analysis using gene specific primers.
Total RNA was purified from rice tissues using Trizol reagent (Invitrogen) and treated with RNase-free DNase I (Promega). The DNase-digested RNA sample was used for reverse transcription by Superscript III reverse transcriptase (Invitrogen). Samples, which served as cDNA stocks for PCR analysis, were stored at −70° C. RT-PCR analysis was performed in a 50-μl solution containing 5-μl cDNA stock using Taq DNA polymerase (Viogene). RT-PCR products were fractionated in a 1.5% agarose gel and visualized by ethidium bromide staining. All RT-PCR analyses were performed from at least two batches of RNA samples with similar results. For quantitative RT-PCR analyses, 5-μl of cDNA was mixed with primers and the 2× Power SYBR Green PCR Master Mix reagent (Roche) and applied to an ABI 7500 Real-Time PCR system (Applied Biosystems). The quantitative variation between different samples was evaluated by the Δ-Δ cycle threshold method, and the amplification of ubiquitin 5 was used as an internal control to normalize all data.

rice roots = experiment: Histochemical staining of root sections for lignin (acriflavine) and suberin (fluorol yellow 088); format: in vivo, Oryza sativa; conditions: 1 μM ABA, 3 days
Protocol: FIG. 10A to FIG. 10B include photos showing ABA and PP2CABA enhance the accumulation of lignin and suberin in cell walls of root peripheral layers and increase the root diameter. […] 1 μM ABA was added and seedlings were cultured for another 3 days. […] Roots at 1 cm above the apex were cross-sectioned and stained with acriflavine for lignin and fluorol yellow 088 for suberin. F, fluorescence image; T, transmission image; EP, epidermis; EX, exodermis; SC, sclerenchyma; CO, cortex. Scale bars=10 μm.
Methonal fixed roots were embedded in 5% agar and cut into 100 μm cross sections using a vibratome (DOSAKA DTK-1000). To check for autofluorescence, sections were viewed under a Zeiss Axiolmager Z1 fluorescence microscope with UV illumination using excitation filter G 365, chromatic beam splitter FT 395, and barrier filter LP 420. To check for lignin distribution, sections were stained with Acriflavine as described (Rocha et al., Front Plant Sci, 5:102 (2014)). Sections were imaged with a Zeiss LSM 510 META confocal microscope using a 488 nm laser line for excitation and a 505 to 550 nm band pass filter for emission. To check for suberin lamellae, sections were stained with Fluorol Yellow 088 as described (Brundrett et al., Biotech Histochem, 66:111 (1991); Landgraf et al., Plant Cell, 26:3403 (2014)). […]

rice seedlings [4] = conditions: Chen et al. 2015; cited from earlier work
[5] = molecular target: T1, phosphor peptide substrate RRApTVA
T1 chain: RRATVA

[6] = system: phosphor peptide substrate, RRApTVA; experiment: Phosphatase activity assay of GST fusion proteins (released free phosphate); format: biochemical; conditions: recombinant GST fusion protein from E. coli, synthetic phosphopeptide
Protocol: as §1
FIG. 6A to FIG. 6E include diagrams showing PP2CABA having two forms which are translated from the first and the second ATG codons. […] The 2nd ATG encodes the Met at amino acid residue 41. Amino acids 1-24 are putative signal peptide (SP). […] Protein loading is shown by the Ponceau S staining (lower panel). […]

CC1=CC(=O)CC(C)(C)[C@@]1(O)/C=C/C(C)=C\C(=O)O [ABA, abscisic acid]
dose dependence of PP2CABA expression in roots [1]: increased with ABA concentrations in a dose-dependent manner | PP2CABA promoter activity (GUS) (PP2CABA promoter): induced | LR growth, WT compared with pp2caba (rice seedlings [2]): more severely inhibited in WT than in pp2caba mutant | LR growth in WT (rice seedlings [2]; 3 days, WT seedlings, maturation zones of roots): completely inhibited | LR growth in pp2caba (rice seedlings [2]; 3 days, pp2caba homozygous mutant, maturation zones of roots): stunted | root diameter (rice seedlings [2]; both WT and pp2caba): enlarged | expression of lignin and suberin biosynthesis genes [3]: induced | accumulation of lignin and suberin in endodermal and exodermal cell layers in roots (rice roots): enhanced the accumulation of lignin and suberin | ABA concentrations that enhance LR growth (rice seedlings [4]): ≤ 0.1 µM | ABA concentrations that inhibit LR growth (rice seedlings [4]): ≥ 0.2 µM

B1: GST-PP2CABA (protein)
chain: LSQGAEEEEDDGEVRLMGLAGEAAGSPGSGGGFSANGKFSYGYASSPGKRSSMEDFYDTRIDGVDGETVGLFGVFDGHGGARAAEFVKQNLFTNLIKHPKLFSDTKSAIAETYTSTDSELLKAETSHNRDAGSTASTAILVGDRLLVANVGDSRAVICRGGDAIAVSRDHKPDQSDERQRIEDAGGFVMWAGTWRVGGVLAVSRAFGDKLLKQYVVADPEIKEEVVDSSLEFLILASDGLWDVVTNEEAVAMVKPILDSEQAAKKLLQEASQRGSADNITCLVVRFLEQENHLPERPTNDQAS
phosphatase activity (released free phosphate) [5]: GST-PP2CABA fusion protein expressed and purified from E. coli exhibited phosphatase activity

B2: GST-PP2CABA(25-327) (protein)
chain: LSQGAEEEEDDGEVRLMGLAGEAAGSPGSGGGFSANGKFSYGYASSPGKRSSMEDFYDTRIDGVDGETVGLFGVFDGHGGARAAEFVKQNLFTNLIKHPKLFSDTKSAIAETYTSTDSELLKAETSHNRDAGSTASTAILVGDRLLVANVGDSRAVICRGGDAIAVSRDHKPDQSDERQRIEDAGGFVMWAGTWRVGGVLAVSRAFGDKLLKQYVVADPEIKEEVVDSSLEFLILASDGLWDVVTNEEAVAMVKPILDSEQAAKKLLQEASQRGSADNITCLVVRFLEQENHLPERPTNDQAS
phosphatase activity (released free phosphate) [5]: both of L form and S form of PP2CABA have phosphatase activities

B3: GST-PP2CABA: GST-PP2CABA fusion protein expressed and purified from E. coli (protein)
chain: LSQGAEEEEDDGEVRLMGLAGEAAGSPGSGGGFSANGKFSYGYASSPGKRSSMEDFYDTRIDGVDGETVGLFGVFDGHGGARAAEFVKQNLFTNLIKHPKLFSDTKSAIAETYTSTDSELLKAETSHNRDAGSTASTAILVGDRLLVANVGDSRAVICRGGDAIAVSRDHKPDQSDERQRIEDAGGFVMWAGTWRVGGVLAVSRAFGDKLLKQYVVADPEIKEEVVDSSLEFLILASDGLWDVVTNEEAVAMVKPILDSEQAAKKLLQEASQRGSADNITCLVVRFLEQENHLPERPTNDQAS
modifications: left off: a dimerising Fc or GST
notes: GST-PP2CABA fusion protein expressed and purified from E. coli
phosphatase activity [6]: exhibited phosphatase activity

B4: GST-PPCABA(41-327) (protein)
chain: MGLAGEAAGSPGSGGGFSANGKFSYGYASSPGKRSSMEDFYDTRIDGVDGETVGLFGVFDGHGGARAAEFVKQNLFTNLIKHPKLFSDTKSAIAETYTSTDSELLKAETSHNRDAGSTASTAILVGDRLLVANVGDSRAVICRGGDAIAVSRDHKPDQSDERQRIEDAGGFVMWAGTWRVGGVLAVSRAFGDKLLKQYVVADPEIKEEVVDSSLEFLILASDGLWDVVTNEEAVAMVKPILDSEQAAKKLLQEASQRGSADNITCLVVRFLEQENHLPERPTNDQAS
phosphatase activity (released free phosphate) [5]: both of L form and S form of PP2CABA have phosphatase activities | phosphatase activity [6]: have phosphatase activities
